Reference: paper PMC5872116, “Screening of E. coli β-clamp Inhibitors Revealed that Few Inhibit Helicobacter pylori More Effectively: Structural and Functional Characterization” (Antibiotics, 2018)

What was measured:
Hpβ-clamp [1] = molecular target: T1, Hpβ-clamp (Helicobacter pylori, UniProt O25242); assay: SPR surface competition with HpDNA ligase, immobilised Hpβ-clamp (qualitative); format: binding; conditions: competitive with HpDNA ligase; HBS-EP pH 7.4, 2% DMSO
T1 construct: gene dnaN; recombinant, expressed in E. coli BL21, Ni-NTA and gel filtration purified (His-tag implied); homodimer
T1 sequence (O25242 1-374): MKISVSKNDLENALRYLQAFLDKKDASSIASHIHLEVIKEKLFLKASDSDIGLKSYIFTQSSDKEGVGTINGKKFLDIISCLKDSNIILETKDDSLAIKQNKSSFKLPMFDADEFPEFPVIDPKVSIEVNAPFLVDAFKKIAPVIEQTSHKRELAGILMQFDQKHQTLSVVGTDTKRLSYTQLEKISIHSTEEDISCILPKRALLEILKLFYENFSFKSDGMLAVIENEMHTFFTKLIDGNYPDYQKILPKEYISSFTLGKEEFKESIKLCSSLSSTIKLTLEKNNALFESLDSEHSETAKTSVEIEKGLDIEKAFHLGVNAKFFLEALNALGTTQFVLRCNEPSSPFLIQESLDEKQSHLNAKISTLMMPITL

Hpβ-clamp [2] = molecular target: T1, Hpβ-clamp; assay: co-crystal structure ([…] Å); also SPR surface competition with HpDNA ligase; format: binding; conditions: subsite I of protein-protein interaction site; competitive with HpDNA ligase

For `O=[N+]([O-])c1ccc2cn[nH]c2c1` [C2, 6-nitroindazole], which “SPR surface competition with HpDNA ligase, immobilised Hpβ-clamp (qualitative)” value (Hpβ-clamp [1]) is on record?
Its value is “All five shortlisted molecules showed competitive binding to β-clamp”.

Which “co-crystal structure (1.97 Å); also SPR surface competition with HpDNA ligase” value (Hpβ-clamp [2]) does the source give for `C[C@H](C(=O)O)c1ccc2c(c1)[nH]c1ccc(Cl)cc12` [C3, (S)-carprofen] here?
Its value is 5FXT (Hpβ-clamp complex with carprofen, C3).

`O=[N+]([O-])c1ccc2[nH]ccc2c1` [C4, 5-nitroindole] was tested. Which “SPR surface competition with HpDNA ligase, immobilised Hpβ-clamp (qualitative)” value (Hpβ-clamp [1]) did it give?
Its value is “All five shortlisted molecules showed competitive binding to β-clamp”.
